Assays:
[1] = system: 5×FAD Alzheimer's disease model mice; experiment: Y-maze test in 5×FAD mice (short-term memory); type: in vivo
Experimental: (§1) In order to evaluate the efficacy of HN2210, HN2213, and HN2313 on Alzheimer's disease-related symptoms, specifically regarding 1) memory and cognitive impairment, 2) amyloid plaques, 3) neurofibrillary tangles (NFTs), and 4) brain inflammation, an in vivo efficacy assessment of HN2210, HN2213 and HN2313 was conducted using 5×FAD Alzheimer's disease model mice. The 5×FAD mice were purchased from Jackson Lab, USA (Cat #034840-JAX) and crossed once with C57bl6 mice to produce F1 heterozygous offspring (Het). The compound was administered via intraperitoneal injection to 6-month-old 5×FAD Het mice, followed by behavioral testing. The normal control mice, which were littermates of the 5×FAD Het mice, were aged to 6 months and received DMSO injection at the same volume.
Specifically, the Y-maze test was performed using a Y-shaped structure maze made of black acrylic with each arm at a […], and light and a camera were installed on the ceiling, and we measured the number of entries for white mice to freely enter each arm while the surroundings were covered with a curtain. This procedure was used to analyze short-term memory. In order to adapt mice to the environment, they were acclimated to the experimental space for 30 minutes. The mice were placed at one end of the maze and allowed to move freely for 12 minutes. The test was conducted with observation periods divided into 8, 10, and 12 minutes. When all four paws of a mice entered an arm, it was considered as fully entered, and the number of entries into each arm without repetition was recorded. The number of entries into each of the three different arms was divided by the total number of entries into all arms minus 2, and expressed as a percentage.

[2] = system: 5×FAD Alzheimer's disease model mice; experiment: Morris water maze test in 5×FAD mice (spatial perceptive ability); type: in vivo; conditions: for Morris water maze time spent swimming in the target quadrant, % of the normal control level / Morris water maze time spent swimming in the target quadrant, increase compared to 5×FAD-DMSO mice: 14 days (FIG. 8c); for Morris water maze time spent in the target quadrant, % of the normal control level / Morris water maze time spent in the target quadrant, increase compared to 5×FAD-DMSO mice: 14 days (FIG. 6b)
Experimental: as §1
Specifically, a 50 cm deep water tank filled with water (25.0±1.0° C.) was divided into four equal quadrants, and a platform (12 cm diameter) was placed 3 mm below the water surface in the center of one quadrant. The training test consisted of a 1-minute free swimming practice without the platform foothold on the first day and a four days of training, during which the animal used environmental cues to locate the hidden platform foothold, with four trials per day. The following day, the platform was removed, and the time the experimental animal spent in the target quadrant was measured (probe trial). Videos were recorded and analyzed using the Ethovision video tracking system (Noldus Information Technology, Wageningen, Netherlands). The data included the time spent swimming in the target quadrant and the number of crossings over the virtual platform's previous position.

[3] = system: tau aggregates in the brain of 5×FAD mice; experiment: Tau aggregate removal in the brain of 5×FAD mice (AT8 antibody staining); type: in vivo; conditions: 5 mg/kg, 14 days
Experimental: as §1
In order to assess the neurofibrillary tangle removal effect of HN2210, HN2213, and HN2313 compounds in the brains of Alzheimer's disease model mice, the following test was conducted using 5×FAD-DMSO mice without compound treatment, 5×FAD mice treated with HN2210, HN2213, or HN2313 compounds, and normal mice as controls.
Specifically, AT8 antibody stains hyperphosphorylated Tau protein that constitutes tau aggregates. Therefore, tau aggregates formed in the hippocampus of 5×FAD mouse can be measured using immunostaining with the AT8 antibody. Brain slices were triple-stained with the AT8 antibody, MAP2 which is a neuronal marker, and DAPI to label nuclei, and the dentate gyrus region of the hippocampus was observed under a confocal scanning microscope.

[4] = system: mTORC1; experiment: mTORC1 inhibitory activity in primary cultured cerebral neurons (S6K Thr389 phosphorylation); type: cell-based, SD mice; conditions: for pThr389-S6K/S6K (% control): 24 hours
[5] = 5 mg/kg, intraperitoneal, once daily, 14 days (FIG. 5)

Compound: O=C1c2cc(F)c(N3CCOCC3)cc2COc2cc3c(cc21)OCO3 [HN2210, 8-(morpholino)-9-fluoro[2]benzoxepino[3,4-f]-1,3-benzodioxol-11(6H)-one]
- Y-maze % alternation, % of the normal control level ([1]; 0.2 mg/kg, 14 days (FIG. 8a)): approximately 85%
- Y-maze % alternation, increase compared to 5×FAD-DMSO mice ([1]; 0.2 mg/kg, 14 days (FIG. 8a)): 1.21 fold
- Y-maze % alternation, % of the normal control level ([1]; 1 mg/kg, 14 days (FIG. 8a)): ~82%
- Y-maze % alternation, increase compared to 5×FAD-DMSO mice ([1]; 1 mg/kg, 14 days (FIG. 8a)): 1.17 fold
- Y-maze % alternation, % of the normal control level ([1]; 5 mg/kg, 14 days (FIG. 8a)): ~93%
- Y-maze % alternation, increase compared to 5×FAD-DMSO mice ([1]; 5 mg/kg, 14 days (FIG. 8a)): 1.32 fold
- Y-maze % alternation, % of the normal control level [1, 5]: 93%
- Y-maze % alternation, increase compared to 5×FAD-DMSO mice [1, 5]: 1.25 fold
- Morris water maze number of target crossings, % of the normal control level ([2]; 0.2 mg/kg, 14 days (FIG. 8b)): approximately 30%
- Morris water maze number of target crossings, increase compared to 5×FAD-DMSO mice ([2]; 0.2 mg/kg, 14 days (FIG. 8b)): 2.02 fold
- Morris water maze time spent swimming in the target quadrant, % of the normal control level ([2]; 0.2 mg/kg): approximately 87%
- Morris water maze time spent swimming in the target quadrant, increase compared to 5×FAD-DMSO mice ([2]; 0.2 mg/kg): 2.14 fold
- Morris water maze number of target crossings, % of the normal control level ([2]; 1 mg/kg, 14 days (FIG. 8b)): ~63%
- Morris water maze number of target crossings, increase compared to 5×FAD-DMSO mice ([2]; 1 mg/kg, 14 days (FIG. 8b)): 4.27 fold
- Morris water maze time spent swimming in the target quadrant, % of the normal control level ([2]; 1 mg/kg): ~85%
- Morris water maze time spent swimming in the target quadrant, increase compared to 5×FAD-DMSO mice ([2]; 1 mg/kg): 2.07 fold
- Morris water maze number of target crossings, % of the normal control level ([2]; 5 mg/kg, 14 days (FIG. 6a)): approximately 59%
- Morris water maze number of target crossings, increase compared to 5×FAD-DMSO mice ([2]; 5 mg/kg, 14 days (FIG. 6a)): 3.96 fold
- Morris water maze time spent in the target quadrant, % of the normal control level ([2]; 5 mg/kg): approximately 96%
- Morris water maze time spent in the target quadrant, increase compared to 5×FAD-DMSO mice ([2]; 5 mg/kg): 1.74 fold
- Morris water maze number of target crossings, % of the normal control level ([2]; 5 mg/kg, 14 days (FIG. 8b)): ~86%
- Morris water maze number of target crossings, increase compared to 5×FAD-DMSO mice ([2]; 5 mg/kg, 14 days (FIG. 8b)): 5.84 fold
- Morris water maze time spent swimming in the target quadrant, % of the normal control level ([2]; 5 mg/kg): ~96%
- Morris water maze time spent swimming in the target quadrant, increase compared to 5×FAD-DMSO mice ([2]; 5 mg/kg): 2.34 fold
- reduction of AT8 antibody signals in the dentate gyrus compared to the 5×FAD-DMSO group [3]: 61%
- effect on S6K Thr389 phosphorylation ([4]; 500 nM or 100 nM, time course to 24 hours (HN2304: from 6 to 24 hours)): reduced p70S6K Thr389 phosphorylation
- pThr389-S6K/S6K (% control) ([4]; 500 nM): 23 % control
- increase in S6K Thr389 phosphorylation at 3 hours ([4]; at 3 hours): 49%
- decrease in S6K Thr389 phosphorylation at 24 hours ([4]; at 24 hours): 77%

Compound: O=C1c2cc(F)c(NCc3ccccc3)cc2COc2cc3c(cc21)OCO3 [HN2213, 8-(benzylamino)-9-fluoro[2]benzoxepino[3,4-f]-1,3-benzodioxol-11(6H)-one]
- Y-maze % alternation, % of the normal control level [1, 5]: 97%
- Y-maze % alternation, increase compared to 5×FAD-DMSO mice [1, 5]: 1.3 fold
- Morris water maze number of target crossings, % of the normal control level ([2]; 5 mg/kg, 14 days (FIG. 6a)): ~60%
- Morris water maze number of target crossings, increase compared to 5×FAD-DMSO mice ([2]; 5 mg/kg, 14 days (FIG. 6a)): 4 fold
- Morris water maze time spent in the target quadrant, % of the normal control level ([2]; 5 mg/kg): ~105%
- Morris water maze time spent in the target quadrant, increase compared to 5×FAD-DMSO mice ([2]; 5 mg/kg): 1.91 fold
- reduction of AT8 antibody signals in the dentate gyrus compared to the 5×FAD-DMSO group [3]: 59%
- pThr389-S6K/S6K (% control) ([4]; 500 nM): 137 % control
- increase in S6K Thr389 phosphorylation in a time-dependent manner ([4]; time course to 24 hours): 37%

Compound: O=C1c2cc(F)c(NC3CCCC3)cc2COc2cc3c(cc21)OCO3 [HN2313, 8-(cyclopentylamino)-9-fluoro-[1,3]dioxolo[4′,5′:4,5]benzo[1,2-b]benzo[e]oxepin-11(6H)-one]
- Y-maze % alternation, % of the normal control level [1, 5]: 90%
- Y-maze % alternation, increase compared to 5×FAD-DMSO mice [1, 5]: 1.2 fold
- Morris water maze number of target crossings, % of the normal control level ([2]; 5 mg/kg, 14 days (FIG. 6a)): ~82%
- Morris water maze number of target crossings, increase compared to 5×FAD-DMSO mice ([2]; 5 mg/kg, 14 days (FIG. 6a)): 5.5 fold
- Morris water maze time spent in the target quadrant, % of the normal control level ([2]; 5 mg/kg): ~84%
- Morris water maze time spent in the target quadrant, increase compared to 5×FAD-DMSO mice ([2]; 5 mg/kg): 1.53 fold
- reduction of AT8 antibody signals in the dentate gyrus compared to the 5×FAD-DMSO group [3]: 49%
- pThr389-S6K/S6K (% control) ([4]; 100 nM): 141 % control
- increase in S6K Thr389 phosphorylation from 1 to 6 hours ([4]; from 1 to 6 hours): 2~3 fold
